Assay: Tissue distribution in JIMT-1 tumor-bearing mice
Type: in vivo
Conditions: 20 mg/kg tail vein injection
Experimental: 48 human breast cancer JIMT-1 tumor-bearing mice were randomly divided into 2 experimental groups, with a total of 6 mice in each experimental group at each time point. Both of the two preparations were administered to the respective experimental mice at a dose of 20 mg/kg through tail vein injection. Blood samples were collected from each group at 0.25, 1, 3 and 24 hours after administration and the mice were sacrificed immediately. Tumor, heart, liver, spleen, lung, kidney, stomach, small intestine, pancreas and ovary tissues were dissected and subjected to pretreatments such as homogenization, the drug concentration in each tissue sample was determined by protein precipitation-LC/MS/MS method, and the main pharmacokinetic parameters were calculated by using the non-compartmental model of Phoenix WinNonlin 8.0 software (Pharsight, USA).

tissue with the highest exposure: highest exposure in the liver
Compound: CC(=O)O[C@H]1C(=O)[C@@]2(C)[C@H]([C@H](OC(=O)c3ccccc3)[C@]3(O)C[C@H](OC(=O)[C@H](O)[C@@H](NC(=O)c4ccccc4)c4ccccc4)C(C)=C1C3(C)C)[C@]1(OC(C)=O)CO[C@@H]1C[C@@H]2O [paclitaxel]

Reference: US20250288535A1, “INSTANT NANOPARTICLE COMPOSITION AND PREPARATION METHOD THEREFOR” (CSPC ZHONGQI PHARMACEUTICAL TECHNOLOGY (SHIJIAZHUANG) CO., …, priority 2022, published 2025)
